Holding throughout (assay): Phenotypic susceptibility assay (site directed mutant RTV)
Common to all, as to assay type: cell-based, HIV-1

The subject of assay [1] is Y188C-RTV. The settings on record: Y188C alone. From the text:
The resistance test vectors containing a functional luciferase gene cassette were constructed and host cells were transfected with the resistance test vector DNA. The resistant test vectors contained patient-derived reverse transcriptase and protease sequences that were either susceptible or resistant to the antiretroviral agents, such as nucleoside reverse transcriptase inhibitors, non-nucleoside reverse transcriptase inhibitors and protease inhibitors. The resistance test vector viral particles produced by transfecting the resistance test vector DNA into host cells, either in the presence or absence of protease inhibitors, were used to infect target host cells grown either in the absence of NRTI or NNRTI or in the presence of increasing concentrations of the drug. The amount of luciferase activity produced in infected target host cells in the presence of drug was compared to the amount of luciferase produced in infected target host cells in the absence of drug. […] The IC50 values were determined by plotting percent drug inhibition vs. log10 drug concentration.
Host cells were seeded in 10-cm-diameter dishes and were transfected several days after plating with resistance test vector plasmid DNA and the envelope expression vector. […] HIV capsid protein (p24) levels in the harvested cell culture media were determined by an EIA method as described by the manufacturer (SIAC; Frederick, Md.). […] The inhibitory effect of the drug was determined using the following equation: % luciferase inhibition=1−(RLUluc [drug]÷RLUluc)×100 where RLUluc [drug] is the relative light unit of luciferase activity in infected cells in the presence of drug and RLUluc is the Relative Light Unit of luciferase activity in infected cells in the absence of drug. […]
The Y188C mutation was introduced into the resistance test vector using the mega-primer method for site-directed mutagenesis (Sakar and Sommar, Ibid.). […] We determined the pattern of phenotypic susceptibility to the NNRTIs., delavirdine, nevirapine and efavirenz, in the Y188C-RTV.

Assay [2] relates to F227L-RTV. The note with it: F227L alone; below 1 = increased susceptibility. From the text: (§1) The resistance test vectors containing a functional luciferase gene cassette were constructed and host cells were transfected with the resistance test vector DNA. The resistant test vectors contained patient-derived reverse transcriptase and protease sequences that were either susceptible or resistant to the antiretroviral agents, such as nucleoside reverse transcriptase inhibitors, non-nucleoside reverse transcriptase inhibitors and protease inhibitors. The resistance test vector viral particles produced by transfecting the resistance test vector DNA into host cells, either in the presence or absence of protease inhibitors, were used to infect target host cells grown either in the absence of NRTI or NNRTI or in the presence of increasing concentrations of the drug. The amount of luciferase activity produced in infected target host cells in the presence of drug was compared to the amount of luciferase produced in infected target host cells in the absence of drug. Drug resistance was measured as the amount of drug required to inhibit by 50% the luciferase activity detected in the absence of drug (inhibitory concentration 50%, IC50). The IC50 values were determined by plotting percent drug inhibition vs. log10 drug concentration.
(§2) Host cells were seeded in 10-cm-diameter dishes and were transfected several days after plating with resistance test vector plasmid DNA and the envelope expression vector. Transfections were performed using a calcium-phosphate precipitation procedure. The cell culture media containing the DNA precipitate was replaced with fresh medium, from one to 24 hours, after transfection. Cell culture media containing resistance test vector viral particles was harvested one to four days after transfection and was passed through a […] filter before being stored at […]. HIV capsid protein (p24) levels in the harvested cell culture media were determined by an EIA method as described by the manufacturer (SIAC; Frederick, Md.). Before infection, target cells (293 and 293/T) were plated in cell culture media. Control infections were performed using cell culture media from mock transfections (no DNA) or transfections containing the resistance test vector plasmid DNA without the envelope expression plasmid. One to three or more days after infection the media was removed and cell lysis buffer (Promega) was added to each well. Cell lysates were assayed for luciferase activity (FIG. 3). The inhibitory effect of the drug was determined using the following equation: % luciferase inhibition=1−(RLUluc [drug]÷RLUluc)×100 where RLUluc [drug] is the relative light unit of luciferase activity in infected cells in the presence of drug and RLUluc is the Relative Light Unit of luciferase activity in infected cells in the absence of drug. IC50 values were obtained from the sigmoidal curves that were generated from the data by plotting the percent inhibition of luciferase activity vs. the log10 drug concentration. The drug inhibition curves are shown in (FIG. 3).
(§3) The mutations V106A, V189L, V181C an F227L were introduced alone and in combination into resistance test vectors using the mega-primer method for site-directed mutagenesis (Sakar and Sommar, Ibid.). Resistance test vectors containing the V106A mutation (V106A-RTV), the V189L mutation (V189L-RTV), the V181C mutation (V181C-RTV) and E227L mutation (F2271-RTV) and two mutations (V106A-Y181C-RTV) and (V106A-V189L-RTV) and (V106A-F227-RTV) and (V181C-F227-RTV) and three mutations, (V106A-Y181C-F227L-RTV) were then tested using the phenotypic assay described earlier and the results were compared to those determined using a genetically defined resistance test vector that was wild type at positions 106, 189, 181 and 227. We determined the pattern of phenotypic susceptibility to the NNRTIs, delavirdine, nevirapine and efavirenz, in all nine vectors.

The subject of assay [3] is V106A-RTV. The settings on record: V106A alone.
Source text: as §1, §2, §3

In assay [4] the test system is V106A-F227-RTV. The note with it: for loss of susceptibility (fold, IC50) vs wild type control RTV: V106A and F227L; for change in susceptibility: mutations at 106 and 227.
Source text: as §1, §2, §3

Assay [5] has as its system V189L-RTV. The note with it: V189L alone.
Source text: as §1, §2, §3

Assay [6] relates to V106A-Y181C-F227L-RTV. The note with it: for loss of susceptibility (fold, IC50) vs wild type control RTV: V106A, Y181C and F227L; for change in susceptibility: mutations at 106 and 181 and 227.
Source text: as §1, §2, §3

The subject of assay [7] is V106A-Y181C-RTV. The note with it: for loss of susceptibility (fold, IC50) vs wild type control RTV: V106A and Y181C; for change in susceptibility: mutations at 106 and 181.
Source text: as §1, §2, §3

Assay [8] relates to Y181C-F227L-RTV. The settings on record: for change in susceptibility (fold, IC50) vs wild type control RTV: Y181C and F227L, below 1 = increased susceptibility; for change in susceptibility: mutations at 181 and 227.
Source text: as §1, §2, §3

Assay [9] concerns V106A-V189L-RTV. The settings on record: for change in susceptibility (fold, IC50) vs wild type control RTV: V106A and V189L; for change in susceptibility: mutations at 106 and 189.
Source text: as §1, §2, §3

Assay [10] concerns E138A-RTV. The settings on record: E138A alone.
Source text: as §1, §2
(§4) The E138A mutation alone and in combination with Y188L was introduced into resistance test vectors using the mega-primer method for site-directed mutagenesis (Sakar and Sommar, Ibid.). Resistance rest vectors containing the E138A mutation (E138A-RTV) or he E138 mutation along with the […] mutation (E138A-Y188L-RTV) were then tested using the phenotypic assay described earlier and the results were compared to those determined using a genetically defined resistance test vector that was wild type at positions 188 and 138. We determined the pattern of phenotypic susceptibility to the NNRTIs, delavirdine, nevirapine and efavirenz, in the E138A-RTV, Y188L-RTV and E138-Y188L-RTV.

The subject of assay [11] is E138A-Y188L-RTV. The note with it: for loss of susceptibility (fold, IC50) vs wild type control RTV: E138A and Y188L; for change in susceptibility: mutations at codons 138 and 188.
Source text: as §1, §2, §4

Where “and” joins values, the source holds several entries; their conditions need not be identical. Identical values can stand only once. Entries after “also recorded” stand apart in the source; their conditions may differ.

Consider three molecules from patent publication US7037644B1, “Means and methods for monitoring non-nucleoside reverse transcriptase inhibitor antiretroviral therapy and guiding therapeutic decisions in the treatment of HIV/AIDS” (ViroLogic, Inc., priority 1998, dated 2006).

For the molecule `CC(C)Nc1cccnc1N1CCN(C(=O)c2cc3cc(NS(C)(=O)=O)ccc3[nH]2)CC1` [delavirdine], the “loss of susceptibility (fold, IC50) vs wild type control RTV” value (“loss of susceptibility (fold, IC50)” for short) in assay [1] was 3 fold; in assay [4], 3 fold; in [6], 50 fold; in [7] it was 100 fold; in [11], 75 fold. In addition, the “change in susceptibility (fold, IC50) vs wild type control RTV” value (from here on “change in susceptibility (fold, IC50)”) in assay [2] is 0.03 fold; in [3] it was 5 fold; in assay [5], 1.8 fold; in assay [8], 0.89 fold; in [9] it was 3 fold; in assay [10], 1.6 fold. The “change in susceptibility” value in assay [4] was “slight decrease”; in [6] it was “moderate decrease”; in assay [7] it was “significant decrease”; in assay [8], “increase”; in [9], “slight decrease; also recorded: alight decrease”; in [11] it was “moderate decrease”.
For the molecule `O=C1Nc2ccc(Cl)cc2[C@@](C#CC2CC2)(C(F)(F)F)O1` [efavirenz], the “loss of susceptibility (fold, IC50)” value in assay [1] worked out at 20 fold; in [4], 8 fold; in assay [6], 12 fold; in [7], 4 fold; in assay [11] it was 88 fold. Moreover, the “change in susceptibility (fold, IC50)” value in assay [2] is 0.48 fold and 0.4 fold; in assay [3], 1.7 fold; in assay [5] it was 1.3 fold; in [8], 0.99 fold; in assay [9], 1 fold; in assay [10], 1.4 fold. Moreover, the “change in susceptibility” value in assay [4] is recorded as “slight decrease”; in assay [6] it was “slight decrease”; in assay [7], “slight decrease”; in assay [8] it was “increase”; in assay [9], “no change”; in assay [11] it was “moderate decrese; also recorded: moderate decrease”.
As to `Cc1ccnc2c1NC(=O)c1cccnc1N2C1CC1` [nevirapine], the “loss of susceptibility (fold, IC50)” value is listed as 30 fold in assay [1]; “greater than 800 fold” in assay [4]; “greater than 800 fold” in assay [6]; “greater than 800 fold” in [7]; “greater than 800 fold” in assay [11]. The “change in susceptibility (fold, IC50)” value in assay [2] was 3 fold; in [3], 60 fold; in [5], 1.3 fold; in assay [8], 285 fold; in assay [9], 50 fold; in [10] it was 1.3 fold. Moreover, the “change in susceptibility” value was “substantial decrease” in assay [4]; “substantial decrease” in assay [6]; “substantial decrease” in [7]; “significant decrease” in assay [8]; “moderate decrease” in assay [9]; “substantial decrease” in assay [11].
